Eleven compounds from US20240166609A1, “ANTIBACTERIAL COMPOUNDS” (BLACKSMITH MEDICINES, INC., priority 2021, published 2024) can be followed below.

One experiment has as its system K. pneumoniae ATCC13883. Description: Bacterial susceptibility testing, MIC by broth microdilution (CLSI). The class given is cell-based. The note with it: Klebsiella pneumoniae, 35° C., 18-24 h, read-out: MIC (μg/mL) K. pneumoniae ATCC13883. The procedure: (§1) Minimal inhibitory concentrations (MIC) were determined by the broth microdilution method in accordance with the Clinical and Laboratory Standards Institute (CLSI) guidelines. In brief, organism suspensions were adjusted to a final inoculum between 3×10^5 and 7×10^5 colony-forming units (CFU)/mL. Drug dilutions and inocula were made in sterile, cation adjusted Mueller-Hinton Broth (Beckton Dickinson). In wells, an inoculum volume of 100 μL was mixed to 2 μL of DMSO with 2-fold serial dilutions of drug. All inoculated microdilution trays were incubated in ambient air at 35° C. for 18-24 h. Following incubation, the lowest concentration of the drug that prevented visible growth (OD600 nm<0.05) was recorded as the MIC. Performance of the assay was monitored by the use of laboratory quality-control strains and compounds with defined MIC spectrum, in accordance with CLSI guidelines
A general note: Broth dilution looks for growth in wells or tubes with falling amounts of substance.

A further experiment concerns P. aeruginosa 209 PAO1. Described as above. The class given is cell-based. The note with it: Pseudomonas aeruginosa, 35° C., 18-24 h, read-out: MIC (μg/mL) P. aeruginosa 209 PAO1. On the procedure:
as §1

A further experiment has as its system P. aeruginosa ATCC27835. The description is as above. The format is cell-based. The note with it: Pseudomonas aeruginosa, 35° C., 18-24 h, read-out: MIC (μg/mL) P. aeruginosa ATCC27835. On the procedure: as §1
A further experiment concerns the target T1, E. coli LpxC (Escherichia coli, UniProt P0A725).
T1 sequence (P0A725 1-305): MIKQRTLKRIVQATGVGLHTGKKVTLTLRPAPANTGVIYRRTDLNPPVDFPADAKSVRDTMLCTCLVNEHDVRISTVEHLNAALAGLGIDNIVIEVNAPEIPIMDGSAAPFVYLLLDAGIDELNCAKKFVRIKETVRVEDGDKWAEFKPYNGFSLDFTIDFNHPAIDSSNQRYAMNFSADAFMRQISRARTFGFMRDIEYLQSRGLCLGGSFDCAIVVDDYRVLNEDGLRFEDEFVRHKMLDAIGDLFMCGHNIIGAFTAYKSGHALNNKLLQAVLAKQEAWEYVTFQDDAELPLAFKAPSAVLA
The experiment can be described thus: LpxC Binding Assay (Rapid Fire MS assay). The class given is biochemical. The procedure:
(§2) IC50 values against E. coli and P. aeruginosa LpxC are determined using a Rapid Fire MS assay as previously described J. Med. Chem. 2012, 55, 1662-1670.

In the next experiment the target is T2, P. aeruginosa LpxC (Pseudomonas aeruginosa, UniProt P47205).
T2 sequence (P47205 1-303): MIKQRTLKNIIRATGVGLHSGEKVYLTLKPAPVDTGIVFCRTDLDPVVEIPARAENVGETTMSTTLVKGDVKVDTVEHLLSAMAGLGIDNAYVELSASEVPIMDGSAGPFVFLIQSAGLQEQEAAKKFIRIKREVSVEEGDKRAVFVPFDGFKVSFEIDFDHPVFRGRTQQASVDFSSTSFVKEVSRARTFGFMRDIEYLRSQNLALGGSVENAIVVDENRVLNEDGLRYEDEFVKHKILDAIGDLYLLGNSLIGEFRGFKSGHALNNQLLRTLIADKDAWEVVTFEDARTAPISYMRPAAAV
Description: LpxC Binding Assay (Rapid Fire MS assay). The class given is biochemical. On the procedure:
as §2

The target of a further experiment is K. pneumoniae LpxC (Klebsiella pneumoniae subsp. pneumoniae, UniProt A6T4N9). The experiment can be described thus: LpxC Binding Assay (Rapid Fire MS assay). The format is biochemical.
For a further experiment, the system named is E. coli ATCC25922. Description: Bacterial susceptibility testing, MIC by broth microdilution (CLSI). The note with it: Escherichia coli, 35° C., 18-24 h, read-out: MIC (μg/mL) E. coli ATCC25922. The class given is cell-based. On the procedure:
as §1

Converted amounts (≈) assume the structure as drawn.

Sequence of K. pneumoniae LpxC (A6T4N9 whole entry): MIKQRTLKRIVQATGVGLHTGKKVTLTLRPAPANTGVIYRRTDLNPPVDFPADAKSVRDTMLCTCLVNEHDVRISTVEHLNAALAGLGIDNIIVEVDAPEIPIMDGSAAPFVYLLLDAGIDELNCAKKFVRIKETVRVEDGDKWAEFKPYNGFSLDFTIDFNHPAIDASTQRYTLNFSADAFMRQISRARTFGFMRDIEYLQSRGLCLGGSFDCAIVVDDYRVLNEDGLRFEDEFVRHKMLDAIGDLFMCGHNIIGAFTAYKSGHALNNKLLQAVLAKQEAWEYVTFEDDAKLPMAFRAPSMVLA

Consider `C[C@H](O)c1nccn1[C@@H](C#Cc1ccc(-c2ccc(OC(CO)CCO)cc2)cc1)CO` (mixture of isomers) [Compound 22, 2-((4′-((S)-4-hydroxy-3-(2-((S)-1-hydroxyethyl)-1H-imidazol-1-yl)but-1-yn-1-yl)-[1,1′-biphenyl]-4-yl)oxy)butane-1,4-diol], for which the MIC in the experiment with K. pneumoniae ATCC13883 was determined as 4 µg/mL (≈ 9.16 µM); with P. aeruginosa 209 PAO1, 1 µg/mL (≈ 2.29 µM); in the experiment on P. aeruginosa ATCC27835, 4 µg/mL (≈ 9.16 µM). The IC50 (usually the point on the concentration scale where inhibition reaches its midpoint) turned out to be 0.8 nM on E. coli LpxC, 8 nM at P. aeruginosa LpxC and 1.5 nM on K. pneumoniae LpxC.

For the compound `COCC(N)COc1ccc(-c2ccc(C#C[C@@H](CO)n3ccnc3[C@H](C)O)cc2)cc1` (mixture of isomers) [Compound 3, (2S)-4-(4′-(2-amino-3-methoxypropoxy)-[1,1′-biphenyl]-4-yl)-2-(2-((S)-1-hydroxyethyl)-1H-imidazol-1-yl)but-3-yn-1-ol], the MIC was 2 µg/mL (≈ 4.59 µM) with E. coli ATCC25922, 4 µg/mL (≈ 9.18 µM) with K. pneumoniae ATCC13883, 1 µg/mL (≈ 2.3 µM) in the experiment with P. aeruginosa 209 PAO1 and 2 µg/mL (≈ 4.59 µM) in the experiment on P. aeruginosa ATCC27835. Besides, the IC50 at E. coli LpxC was 1.5 nM; on P. aeruginosa LpxC it was 15.1 nM; on K. pneumoniae LpxC, 2.2 nM.

As for `C[C@H](O)c1nccn1[C@@H](C#Cc1ccc(-c2ccc(O[C@H]3COC[C@@H]3O)cc2)cc1)CN` (relative stereo) [Compound 24, (trans)-4-((4′-((S)-4-amino-3-(2-((S)-1-hydroxyethyl)-1H-imidazol-1-yl)but-1-yn-1-yl)-[1,1′-biphenyl]-4-yl)oxy)tetrahydrofuran-3-ol], the MIC in the experiment with K. pneumoniae ATCC13883 stood at 4 µg/mL (≈ 9.23 µM); with P. aeruginosa 209 PAO1 it was 2 µg/mL (≈ 4.61 µM); with P. aeruginosa ATCC27835 it was 4 µg/mL (≈ 9.23 µM). Moreover, the IC50 at E. coli LpxC was 1.9 nM; on P. aeruginosa LpxC, 42.9 nM; at K. pneumoniae LpxC it was 4.1 nM.

With `C[C@H](O)c1nccn1[C@@H](C#Cc1ccc(-c2ccc(OCC3COCCO3)cc2)cc1)CO` (mixture of isomers) [Compound 13, (2S)-4-(4′-((1,4-dioxan-2-yl)methoxy)-[1,1′-biphenyl]-4-yl)-2-(2-((S)-1-hydroxyethyl)-1H-imidazol-1-yl)but-3-yn-1-ol], the MIC with K. pneumoniae ATCC13883 was 1 µg/mL (≈ 2.23 µM); in the experiment on P. aeruginosa 209 PAO1, 2 µg/mL (≈ 4.46 µM); in the experiment on P. aeruginosa ATCC27835, 4 µg/mL (≈ 8.92 µM). Also, the figures for the 50% inhibitory concentration (IC50) on E. coli LpxC, on P. aeruginosa LpxC and on K. pneumoniae LpxC were below 0.5 nM, 5.5 nM and 0.9 nM, respectively.

Take `C[C@H](O)c1nccn1CC#Cc1ccc(-c2ccc(C3CC(NCCC#N)C3)cc2)cc1` (stereo partly drawn) [Compound 18, (S)-3-((3-(4′-(3-(2-(1-hydroxyethyl)-1H-imidazol-1-yl)prop-1-yn-1-yl)-[1,1′-biphenyl]-4-yl)cyclobutyl)amino)propanenitrile]: the MIC with K. pneumoniae ATCC13883 turned out to be 0.25 µg/mL (≈ 0.589 µM); with P. aeruginosa 209 PAO1 it was 2 µg/mL (≈ 4.71 µM); in the experiment with P. aeruginosa ATCC27835 it was 2 µg/mL (≈ 4.71 µM). Also, the figures for the IC50 at E. coli LpxC, on P. aeruginosa LpxC and on K. pneumoniae LpxC were below 0.5 nM, 8.6 nM and 0.6 nM, respectively.

In the case of `C[C@H](O)c1nccn1[C@@H](C#Cc1ccc(-c2ccc(OCC(CO)CO)cc2)cc1)CO` [Compound 11, 2-(((4′-((S)-4-hydroxy-3-(2-((S)-1-hydroxyethyl)-1H-imidazol-1-yl)but-1-yn-1-yl)-[1,1′-biphenyl]-4-yl)oxy)methyl)propane-1,3-diol], the MIC was found to be 8 µg/mL (≈ 18.3 µM) in the experiment on K. pneumoniae ATCC13883, 2 µg/mL (≈ 4.58 µM) in the experiment on P. aeruginosa 209 PAO1 and 4 µg/mL (≈ 9.16 µM) with P. aeruginosa ATCC27835. The IC50 at E. coli LpxC worked out at 1 nM; on P. aeruginosa LpxC, 6.6 nM; at K. pneumoniae LpxC it was 1.8 nM.

In the case of `C[C@H](O)c1nccn1[C@@H](C#Cc1ccc(-c2ccc(O[C@H]3COC[C@@H]3O)cc2)cc1)CO` (relative stereo) [Compound 10, (trans)-4-((4′-((S)-4-hydroxy-3-(2-((S)-1-hydroxyethyl)-1H-imidazol-1-yl)but-1-yn-1-yl)-[1,1′-biphenyl]-4-yl)oxy)tetrahydrofuran-3-ol], the MIC in the experiment with K. pneumoniae ATCC13883 came out at 2 µg/mL (≈ 4.6 µM); in the experiment with P. aeruginosa 209 PAO1 it was 1 µg/mL (≈ 2.3 µM); in the experiment on P. aeruginosa ATCC27835, 2 µg/mL (≈ 4.6 µM). Besides, the IC50 was below 0.5 nM at E. coli LpxC, 5.1 nM on P. aeruginosa LpxC and 0.9 nM on K. pneumoniae LpxC.

Turning to `C[C@H](O)c1nccn1[C@@H](C#Cc1ccc(-c2ccc(OC[C@@H](O)CO)cc2)cc1)CO` [Compound 8, (S)-3-((4′-((S)-4-hydroxy-3-(2-((S)-1-hydroxyethyl)-1H-imidazol-1-yl)but-1-yn-1-yl)-[1,1′-biphenyl]-4-yl)oxy)propane-1,2-diol], the MIC worked out at 4 µg/mL (≈ 9.47 µM) with K. pneumoniae ATCC13883, 2 µg/mL (≈ 4.73 µM) with P. aeruginosa 209 PAO1 and 2 µg/mL (≈ 4.73 µM) in the experiment with P. aeruginosa ATCC27835. Further, the figures for the IC50 on E. coli LpxC, at P. aeruginosa LpxC and on K. pneumoniae LpxC were 1 nM, 9.6 nM and 1.9 nM, respectively.

For `COC[C@@H](O)COc1ccc(-c2ccc(C#C[C@@H](CO)n3ccnc3[C@H](C)O)cc2)cc1` [Compound 14, (S)-4-(4′-((R)-2-hydroxy-3-methoxypropoxy)-[1,1′-biphenyl]-4-yl)-2-(2-((S)-1-hydroxyethyl)-1H-imidazol-1-yl)but-3-yn-1-ol], the values for the MIC in the experiment with K. pneumoniae ATCC13883, in the experiment with P. aeruginosa 209 PAO1 and in the experiment on P. aeruginosa ATCC27835 were 2 µg/mL (≈ 4.58 µM), 1 µg/mL (≈ 2.29 µM) and 2 µg/mL (≈ 4.58 µM), respectively. Also, the values for the IC50 on E. coli LpxC, at P. aeruginosa LpxC and on K. pneumoniae LpxC were below 0.5 nM, 6.4 nM and 0.9 nM, respectively.

For `C[C@H](O)c1nccn1[C@@H](C#Cc1ccc(-c2ccc(CO[C@@H]3C[C@H]3N)cc2)cc1)CO` (racemic) [Compound 9, (S)-4-(4′-(((trans)-2-aminocyclopropoxy)methyl)-[1,1′-biphenyl]-4-yl)-2-(2-((S)-1-hydroxyethyl)-1H-imidazol-1-yl)but-3-yn-1-ol], the MIC in the experiment on K. pneumoniae ATCC13883 worked out at 4 µg/mL (≈ 9.58 µM); in the experiment with P. aeruginosa 209 PAO1 it was 2 µg/mL (≈ 4.79 µM); with P. aeruginosa ATCC27835 it was 4 µg/mL (≈ 9.58 µM). In addition, the IC50 at E. coli LpxC came to 1.8 nM; on P. aeruginosa LpxC, 47.7 nM; on K. pneumoniae LpxC it was 3.9 nM.

As for `C[C@H](O)c1nccn1CC#Cc1ccc(-c2ccc(C3CN(C(=O)CO)C3)cc2)cc1` [Compound 21, (S)-2-hydroxy-1-(3-(4′-(3-(2-(1-hydroxyethyl)-1H-imidazol-1-yl)prop-1-yn-1-yl)-[1,1′-biphenyl]-4-yl)azetidin-1-yl)ethan-1-one], the figures for the MIC with K. pneumoniae ATCC13883, in the experiment on P. aeruginosa 209 PAO1 and in the experiment on P. aeruginosa ATCC27835 were 1 µg/mL (≈ 2.41 µM), 4 µg/mL (≈ 9.63 µM) and 4 µg/mL (≈ 9.63 µM), respectively. In addition, the 50% inhibitory concentration (IC50) was below 0.5 nM at E. coli LpxC, 12.6 nM at P. aeruginosa LpxC and 0.7 nM on K. pneumoniae LpxC.
